Assay results taken from patent US20030162834A1, “Natural physiologically active material effective on fish diseases and fish food containing the material” (priority 1998, published 2003).

How the values were obtained:
Edwardsiella tarda = experiment: Trial 11: turbidimetric antibacterial assay; format: cell-based; settings: 500 ppm in BHI liquid culture medium, 13 hours, 23 degrees centigrade
Description: (§1) The turbidimetric analysis was employed. Fatty acids of C2, C4, C6-C10 were each dissolved in 2 ml of BHI liquid culture medium at 500 ppm concentration. A number 1×10^5 of typical bacteria (Vibrio anguillarum, Edwardsiella tarda and Enterococcus seriolicida) causing the fish bacterial diseases were inoculated in each adjusted culture medium, followed by cultivation for 13 hours at 23 degrees centigrade. After the cultivation, turbidity of the culture medium was measured at 600 nm to determine the amount of multiplied bacteria. The trial was conducted two times. Results are shown in FIG. 19 (Vibrio anguillarum), FIG. 20 (Edwardsiella tarda), and FIG. 21 (Enterococcus seriolicida).

Vibrio anguillarum = experiment: Trial 11: turbidimetric antibacterial assay; format: cell-based; settings: 500 ppm in BHI liquid culture medium, 13 hours, 23 degrees centigrade
Description: as §1

Enterococcus seriolicida = experiment: Trial 11: turbidimetric antibacterial assay; format: cell-based; settings: 500 ppm in BHI liquid culture medium, 13 hours, 23 degrees centigrade
Description: as §1

Solubility = format: physicochemical
fish bacteria = experiment: Trial 11: overall statement on C12 against fish bacteria; format: cell-based; settings: low concentration, not the same condition as 500 ppm
Description: as §1, with “Fatty acids of C2, C4, C6-C10 were each dissolved in 2 ml of BHI liquid culture medium at 500 ppm concentration.” left out

[1] = test system: parasites (Heterobothrium okamotoi, Cryptocaryon irritans); experiment: Trial 1: overall statements on efficacy of fatty acids against parasites; format: cell-based; settings: Trial 1 summary; C12 at a low concentration, not the same condition
Description: Fatty acids having carbon number C2, C4 and C6-C10 were each dissolved in seawater at 1 mM concentration, and oncomiracidia of Heterobothrium okamotoi and larvae attaching to the gill were immersed in the seawater solutions. After 2 hours from the start of immersion, the efficacy of the fatty acids was investigated by counting the number of dead oncomiracidia and the number of larvae dropping down from the gill. More than 30 individuals of parasites were transferred to each group.
For Cryptocaryon irritans, fatty acids having carbon number C2, C4 and C6-C10 were each dissolved in seawater at 0.5 mM concentration, and theronts of Cryptocaryon irritans were immersed in the seawater solutions. After 1 hour from the start of immersion, the efficacy of the fatty acids was investigated by counting the number of dead theronts. More than 200 individuals of parasites were transferred to each group.
For any of the groups, the trial was made under condition of 20 degrees centigrade.

[2] = test system: Vibrio sp. infection and gliding bacterium infection; experiment: Trial 12: bleeding trial on spotted plaice with occurred bacterial disease; format: in vivo
From the text: Spotted plaice weighing approximately 60 g in average was employed in this trial. Each 270 pieces of spotted plaice were put in off-shore net pens of 4×4×2.5 m, and bled for 100 days. […] The number of dead fish and the fish situations were observed. The fish were fed twice per day, i.e., in the morning and evening. The water temperature during the trial period was in the range of 14-17 degrees centigrade.

Heterobothrium okamotoi = settings: drug bath about one hour, about 800 ppm formalin; cited from earlier work
Cryptocaryon irritans [3] = experiment: In vitro assay of glycerides of octanoic acid against Cryptocaryon irritans; format: cell-based
Cryptocaryon irritans [4] = experiment: Trial 8: octanoic acid versus its monoglyceride and triglyceride, oral, red sea bream; format: in vivo; settings: diet amount equal to 17.5 mM octanoic acid residues (2.5 g acid, 3.8 g monoglyceride, 2.7 g triglyceride per kg)
From the text: Fish tested: Red sea bream weighing approximately 15.8 g in average.
Trial groups: Four groups, i.e., an octanoic-acid added group in which fish were fed diets added with octanoic acid, a monoglyceride added group in which fish were fed diets added with monoglyceride of octanoic acid, a triglyceride added group in which fish were fed diets added with triglyceride of octanoic acid, and a control group in which fish were fed diets added with neither octanoic acid nor glycerides. The feeding rate was 3% of fish weight/day for each group.
Trial diets: The diets added with octanoic acid were prepared by spraying 2.5 g (17.5 mM with respect to the diet weight) of octanoic acid to 1 kg of commercially available pellets for red sea bream. […]. Specifically, the diets added with monoglyceride and triglyceride were prepared respectively by spraying 3.8 g of monoglyceride and 2.7 g of triglyceride to 1 kg of the commercially available pellets for red sea bream. The control group fish were fed the commercially available pellets for red sea bream.
Challenge trial: Each 10 pieces of fish from among a shoal of fish, in which no diseases such as Cryptocaryon irritans infection were found, were put in a 100-liter water tank, and were fed the respective trial diets. After 5 days, approximately 2000 individuals of theronts of Cryptocaryon irritans were put into each water tank to infect the fish while water flow was stopped for 1 hour. Then, bleeding was continued for 31 days while feeding the respective trial diets. During the trial period, the water temperature was 24+−1 degrees centigrade and the water was exchanged at 20 cycles/day.
Evaluation was made by sampling 5 pieces of fish from each group after 18 and 31 days from the start of the challenge, and comparing the number of the parasites attaching to the gill of each fish.

[5] = diets containing 0.5% decanoic acid fed from the 64-th day

SMILES: CCCCCCCCC(=O)O [C9, pelargonic acid]
- antibacterial activity (turbidity at 600 nm) (Edwardsiella tarda): showed an antibacterial activity
- antibacterial activity (turbidity at 600 nm) (Vibrio anguillarum): showed an antibacterial activity
- antibacterial activity (turbidity at 600 nm) (Enterococcus seriolicida): showed an antibacterial activity

SMILES: CCCCCCCCCCCC(=O)O [C12, lauric acid]
- solubility in seawater (Solubility; Trial 1 conditions (1 mM / 0.5 mM)): so low in solubility that the trial could not be made under the same condition
- solubility in BHI liquid culture medium (Solubility; Trial 11 conditions (500 ppm)): so low in solubility that the trial could not be made under the same condition
- antibacterial activity (fish bacteria): a similar activity was found even at a low concentration
- efficacy against parasites [1]: a similar activity was found even at a low concentration

SMILES: CN(C)[C@@H]1C(O)=C(C(N)=O)C(=O)[C@@]2(O)C(O)=C3C(=O)c4c(O)cccc4[C@@](C)(O)[C@H]3[C@H](O)[C@@H]12 [OTC, exytetracycline, reference compound]
- number of dead fish after application ([2]; OTC in diet 6 days (22-th to 27-th day), 0.5 g of 10% OTC/kg of fish weight): reduced
- complete remedy of the Vibrio sp. infection ([2]; OTC in diet 6 days, 0.5 g of 10% OTC/kg of fish weight): not confirmed

SMILES: CCCCCCCCCC(=O)O [decanoic acid]
- antibacterial activity (turbidity at 600 nm) (Edwardsiella tarda): showed an antibacterial activity
- antibacterial activity (turbidity at 600 nm) (Vibrio anguillarum): showed an antibacterial activity
- antibacterial activity (turbidity at 600 nm) (Enterococcus seriolicida): showed an antibacterial activity
- dead fish after the 72-th day from the start of the trial [2, 5]: no dead fish were found
- fish suffering abrasion and bleeding due to the infections [2, 5]: not found
- number of dead fish after feeding [2, 5]: apparently reduced

SMILES: C=O [formalin]
- effect on adult parasites (Heterobothrium okamotoi): cannot destroy adult parasites at all
- larvae destroyed (Heterobothrium okamotoi): ≤ 80%

SMILES: CCCCCCCC(=O)OCC(O)CO (stereo not drawn) [monoglyceride of octanoic acid]
- antibacterial activity against Cryptocaryon irritans (Cryptocaryon irritans [3]): an antibacterial activity though at a lower level than octanoic acid
- number of parasites attaching to the gill after 18 and 31 days, versus control (Cryptocaryon irritans [4]): apparently fewer

SMILES: CCCCCCCC(=O)OCC(COC(=O)CCCCCCC)OC(=O)CCCCCCC [triglyceride of octanoic acid]
- antibacterial activity against Cryptocaryon irritans (Cryptocaryon irritans [3]): no antibacterial activity
- number of parasites attaching to the gill after 18 and 31 days, versus control (Cryptocaryon irritans [4]): apparently fewer
